Where a name gives a salt, the structure may show the parent alone.

This passage reports change in vivo results from patent publication US5449677A, “Cyclic benzylamino, benzylamido and benzylimido antipsychotic agents” (McNeilab, Inc., priority 1993, dated 1995).

The nature of this assay: Block of Conditioned Avoidance Responding (Rat) test (CAR). The following applies: po, read-out: % inhibition CAR. In kind it is in vivo, male Fischer 344 rats. How it is done:
The sessions consist of 60 trials, one every minute.
% change CAR=((Day 2% CAR/Day 1% CAR)×100)-100
Failure to escape was calculated for each animal as follows:
% Failures=#of Failures to Escape/#of trials

For the molecule `CC(C)Oc1ccccc1N1CCN(Cc2ccc(CN3CCCCC3=O)cc2)CC1` [CP #2, 1-[[4-[[1-[2-(1-Methylethoxy)phenyl]-4-piperazinyl]methyl]phenyl]methyl]-piperidin-2-one Hydrochloride (5:1)], the change in vivo at 5 mg/kg was -29%.
The same measure for `CC(C)Oc1ccccc1N1CCN(Cc2cccc(CN3CCCCC3=O)c2)CC1` [CP #1, 1-[[3-[[1-[2-(1-Methylethoxy)phenyl]-4-piperazinyl]methyl]phenyl]methyl]piperidin-2-one Hydrochloride (3:2)]: -89%.
The value for `CC(C)Oc1ccccc1N1CCN(Cc2ccccc2CN2CCCCC2=O)CC1` [CP #3, 1-[[2-[[1-[2-(1-Methylethoxy)phenyl]-4-piperazinyl]methyl]phenyl]methyl]-piperidin-2-one Hydrochloride (3:2)] was -6%.
